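Compound exposure: 48 hours, 5 concentrations, 96-well plates. The concentration for full growth arrest is given as TGI.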
Assays:
Assay in all cases: NCI anticancer screen, dose series, 48 h
MOLT-4 leukemia = test system: MOLT-4 leukemia
LOX IMVI melanoma = test system: LOX IMVI melanoma
HT29 colon = test system: HT29 colon
SK-OV-3 ovarian = test system: SK-OV-3 ovarian
CAKI-1 renal = test system: CAKI-1 renal
NCI/ADR-RES ovarian = test system: NCI/ADR-RES ovarian
SN12C renal = test system: SN12C renal
SK-MEL-5 melanoma = test system: SK-MEL-5 melanoma
OVCAR-8 ovarian = test system: OVCAR-8 ovarian
U251 CNS = test system: U251 CNS
BT-549 breast = test system: BT-549 breast
HS 578T breast = test system: HS 578T breast
T-47D breast = test system: T-47D breast
NCI-H23 lung = test system: NCI-H23 lung
MDA-MB-435 = test system: MDA-MB-435
HCT-116 colon = test system: HCT-116 colon
SR leukemia = test system: SR leukemia
SK-MEL-2 melanoma = test system: SK-MEL-2 melanoma
SNB-19 CNS = test system: SNB-19 CNS
M14 melanoma = test system: M14 melanoma
TK-10 renal = test system: TK-10 renal
A498 renal = test system: A498 renal
A549 NSCLC = test system: A549 NSCLC
RXF 393 renal = test system: RXF 393 renal
NCI-H226 lung = test system: NCI-H226 lung
UO-31 renal = test system: UO-31 renal
IGROV1 ovarian = test system: IGROV1 ovarian
OVCAR-4 ovarian = test system: OVCAR-4 ovarian
NCI-H460 lung = test system: NCI-H460 lung
NCI-H522 lung = test system: NCI-H522 lung
SF-295 CNS = test system: SF-295 CNS
SF-539 CNS = test system: SF-539 CNS
KM12 colon = test system: KM12 colon
OVCAR-5 ovarian = test system: OVCAR-5 ovarian
786-0 renal = test system: 786-0 renal
K-562 leukemia = test system: K-562 leukemia
SW-620 colon = test system: SW-620 colon
SNB-75 CNS = test system: SNB-75 CNS
HOP-92 NSCLC = test system: HOP-92 NSCLC
MDA-N = test system: MDA-N
MCF7 breast = test system: MCF7 breast
OVCAR-3 ovarian = test system: OVCAR-3 ovarian
HL-60(TB) leukemia = test system: HL-60(TB) leukemia
CCRF-CEM leukemia = test system: CCRF-CEM leukemia
UACC-257 melanoma = test system: UACC-257 melanoma
HCT-15 colon = test system: HCT-15 colon
MDA-MB-231 breast = test system: MDA-MB-231 breast
DU-145 prostate = test system: DU-145 prostate
EKVX NSCLC = test system: EKVX NSCLC
UACC-62 melanoma = test system: UACC-62 melanoma
COLO 205 colon = test system: COLO 205 colon
ACHN renal = test system: ACHN renal
RPMI-8226 leukemia = test system: RPMI-8226 leukemia
SF-268 CNS = test system: SF-268 CNS
PC-3 prostate = test system: PC-3 prostate

CCCCCCCCCCCCCCCCOC[C@@H](COC(c1ccccc1)(c1ccccc1)c1ccccc1)O[P+](=S)OC (stereo not given in full)
TGI (MOLT-4 leukemia): 53.1 µM | TGI (LOX IMVI melanoma): 11.3 µM | TGI (HT29 colon): 35.2 µM | TGI (SK-OV-3 ovarian): 19.8 µM | TGI (CAKI-1 renal): 23.8 µM | TGI (NCI/ADR-RES ovarian): 59.8 µM | TGI (SN12C renal): 21.8 µM | TGI (SK-MEL-5 melanoma): 22.4 µM | TGI (OVCAR-8 ovarian): 48.9 µM | TGI (U251 CNS): 17.6 µM | TGI (BT-549 breast): 16.7 µM | TGI (HS 578T breast): 82.6 µM | TGI (T-47D breast): 45 µM | TGI (NCI-H23 lung): 23.7 µM | TGI (MDA-MB-435): 5.5 µM | TGI (HCT-116 colon): 14.1 µM | TGI (SR leukemia): 5.46 µM | TGI (SK-MEL-2 melanoma): 33.3 µM | TGI (SNB-19 CNS): 21.3 µM | TGI (M14 melanoma): 14.5 µM | TGI (TK-10 renal): 23.6 µM | TGI (A498 renal): 26.1 µM | TGI (A549 NSCLC): 21 µM | TGI (RXF 393 renal): 22.7 µM | TGI (NCI-H226 lung): 42.5 µM | TGI (UO-31 renal): 30.1 µM | TGI (IGROV1 ovarian): 36 µM | TGI (OVCAR-4 ovarian): 22.9 µM | TGI (NCI-H460 lung): 5.8 µM | TGI (NCI-H522 lung): 27.5 µM | TGI (SF-295 CNS): 6.88 µM | TGI (SF-539 CNS): 9.45 µM | TGI (KM12 colon): 19.2 µM | TGI (OVCAR-5 ovarian): 28.7 µM | TGI (786-0 renal): 19.1 µM | TGI (K-562 leukemia): 41.8 µM | TGI (SW-620 colon): 37 µM | TGI (SNB-75 CNS): 29.6 µM | TGI (HOP-92 NSCLC): 26.2 µM | TGI (MDA-N): 5.53 µM | TGI (MCF7 breast): 31 µM | TGI (OVCAR-3 ovarian): 31.8 µM | TGI (HL-60(TB) leukemia): 36 µM | TGI (CCRF-CEM leukemia): 30.1 µM | TGI (UACC-257 melanoma): 26.5 µM | TGI (HCT-15 colon): 22.4 µM | TGI (MDA-MB-231 breast): 5.49 µM | TGI (DU-145 prostate): 30.6 µM | TGI (EKVX NSCLC): 31.5 µM | TGI (UACC-62 melanoma): 14.5 µM | TGI (COLO 205 colon): 38.6 µM | TGI (ACHN renal): 29 µM | TGI (RPMI-8226 leukemia): 14.7 µM | TGI (SF-268 CNS): 28.6 µM | TGI (PC-3 prostate): 18.9 µM
